From US8697690B2, “Isoindolone M1 receptor positive allosteric modulators” (Merck Sharp & Dohme Corp., priority 2010, dated 2014)
pEC50: −log10 of the molar value.

The compounds below were run against T1, acetylcholine muscarinic M1 receptor (Homo sapiens, UniProt P11229) (assay: muscarinic FLIPR assay: intracellular calcium in CHOnfat/hM1 cells, potentiation of EC20 acetylcholine). Conditions: IP = inflection point calculated from FLIPR values, 4 min preincubation, then EC20 acetylcholine (3 nM final).
T1 construct: expressed in transfected cells; host or cells: CHOnfat cells (CHO with NFAT reporter background), Geneticin-selected
T1 sequence (P11229 1-460): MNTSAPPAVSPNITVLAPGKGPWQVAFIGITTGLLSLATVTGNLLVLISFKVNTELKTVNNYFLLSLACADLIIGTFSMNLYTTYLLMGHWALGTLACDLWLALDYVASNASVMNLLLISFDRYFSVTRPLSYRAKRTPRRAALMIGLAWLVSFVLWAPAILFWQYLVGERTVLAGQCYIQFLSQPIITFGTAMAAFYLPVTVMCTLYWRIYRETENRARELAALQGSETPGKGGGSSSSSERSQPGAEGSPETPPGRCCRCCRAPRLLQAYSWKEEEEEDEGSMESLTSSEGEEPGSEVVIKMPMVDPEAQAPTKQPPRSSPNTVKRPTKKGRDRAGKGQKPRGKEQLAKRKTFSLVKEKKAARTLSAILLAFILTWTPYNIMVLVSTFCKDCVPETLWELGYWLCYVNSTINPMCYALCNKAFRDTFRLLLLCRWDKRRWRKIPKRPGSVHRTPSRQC
Assay type: cell-based
Experimental: The assay studies the effect of one or several concentrations of test compounds on basal or acetylcholine-stimulated Ca^2+ levels using FLIPR.
Compounds are prepared and subjected to a preincubation period of 4 min. Thereafter, a single EC20 concentration of acetylcholine is added to each well (3 nM final). The intracellular Ca^2+ level of each sample is measured and compared to an acetylcholine control to determine any modulatory activity.
Cells: CHOnfat/hM1, hM2, hM3 or hM4 cells are plated 24 hr before the assay at a density of 18,000 cells/well (100 μL) in a 384 well plate. CHOnfat/hM1 and CHOnfat/hM3 Growth Medium: 90% DMEM (Hi Glucose); 10% HI FBS; 2 mM L-glutamine; 0.1 mM NEAA; Pen-Strep; and 1 mg/ml Geneticin, are added. For M2Gqi5CHOnfat and M4Gqi5CHOnfat cells, an additional 600 ug/ml hygromycin is added.
Equipment: 384 well plate, 120 μL addition plate; 96-well Whatman 2 ml Uniplate Incubator, 37° C., 5% CO2; Skatron EMBLA-384 Plate Washer; Multimek Pipetting System; Genesis Freedom 200 System; Mosquito System; Temo Nanoliter Pipetting System; and FLIPR^384 Fluorometric Imaging Plate Reader System are used.
Buffers. Assay Buffer: Hanks Balanced Salt Solution, with 20 mM Hepes, 2.5 mM Probenecid (Sigma P-8761) first dissolved in 1 N NaOH, 1% Bovine Serum Albumin (Sigma A-9647). Dye Loading Buffer: Assay Buffer plus 1% Fetal Bovine Serum and Fluo-4AM/Pluronic Acid Mixture. 2 mM Fluo-4AM ester stock in DMSO (Molecular Probes F-14202) Concentration of 2 μM in buffer for a final concentration of 1 μM in Assay. 20% Pluronic Acid Solution stock, with concentration of 0.04% in Buffer, 0.02% in Assay.
65 μL of 2 mM Fluo-4AM are mixed with 130 μL of 20% Pluronic Acid. The resulting solution and 650 μL FBS is added to the assay buffer for a total volume of 65 mL. Positive Controls: 4-Br-A23187: 10 mM in DMSO; final concentration […]. Acetylcholine: 10 mM in water, working stock at both 20 μM and 30 μM in assay buffer, final concentration of 10 μM. This is used to check the maximum stimulation of the CHOK1/hM1 cells. 20 μM (2×) acetylcholine is added in the preincubation part of the assay, and the 30 μM (3×) stock is added in the second part. (EC20)Acetylcholine: 10 mM in water, working stock of 9 nM (3×), and final concentration in assay is 3 nM. This is used after the preincubation with test compounds. Addition of the EC20 Acetylcholine to each well with a test compound will ascertain any modulator activity. 24 wells contain 3 nM Acetylcholine alone as a control.
Determining Activity of Putative Compounds:
Screening Plate Compounds are titrated in 96-well plates (columns 2-11), 100% DMSO, started at a concentration of 15 mM (150× stock concentration), and 3-fold serial dilutions using Genesis Freedom200 System. Four 96-well plates are combined into a 384-well plate using Mosquito Nanoliter Pipetting System by transferring 1 μl of serial diluted compounds to each well, and 1 mM acetylcholine (100× stock concentration) were added as a control. Using Temo, 49 μl assay buffer is added to each well of the 384-well plate right before assay.
In a 96-well Whatman 2 ml Uniplate, 9 nM Acetylcholine (3×) is pipetted into wells corresponding to the screening compounds, and into control wells. The 30 μM acetylcholine control (3×) is added into control wells, and the 3× agonist plate is transferred into a 384 well plate.
Cells are washed three times with 100 μL of buffer, leaving 30 μL of buffer in each well. Using Multimek, 30 μL of Dye Loading Buffer is added into each well and incubated at 37° C., 5% CO2 for up to one hr.
After 60 min, the cells are washed three times with 100 μL of buffer, leaving 30 μL of buffer in each well. The cell plate, screening plate, and agonist addition plates are placed on the platform in the FLIPR and the door closed. A signal test to check background fluorescence and basal fluorescence signal is performed. Laser intensity is adjusted if necessary. […]

pEC50	SMILES
7.74	Cc1ccc(Cc2cc3c(c4ccccc24)CN([C@H]2CCCC[C@@H]2O)C3=O)cn1 [Example 2, 2-[(1S,2S)-2-Hydroxycyclohexyl]-5-[(6-methylpyridin-3-yl)methyl]-1,2-dihydro-3H-benzo[e]isoindol-3-one]
7.54	CSc1ccc(Cc2cc3c(c4ccccc24)CN([C@H]2CCCC[C@@H]2O)C3=O)cn1 [Example 10, 2-[(1S,2S)-2-Hydroxycyclohexyl]-5-{[6-(methylthio)pyridine-3-yl]methyl}-1,2-dihydro-3H-benzo[e]isoindol-3-one]
7.28	COc1ccc(Cc2cc3c(c4ccccc24)CN([C@H]2COCC[C@@H]2O)C3=O)cn1 [Example 11, 2-[(3S,4S)-4-Hydroxytetrahydro-2H-pyran-3-yl]-5-[(6-methoxypyridin-3-yl)methyl]-1,2-dihydro-3H-benzo[e]isoindol-3-one]
6.51	COc1ccc(Cc2cc3c(c4ncccc24)C(C)(C)N([C@H]2CCCC[C@@H]2O)C3=O)cn1 [Example 18, 8-[(1S,2S)-2-Hydroxycyclohexyl]-5-[(6-methoxypyridin-3-yl)methyl]-9,9-dimethyl-8,9-dihydro-7H-pyrrolo[3,4-h]quinolin-7-one]
7.39	O=C1c2cc(Cc3ccc(OCc4ccccc4)nc3)c3cccnc3c2CN1[C@H]1CCCC[C@@H]1O [Example 19]
7.72	O=C1c2cc(Cc3ccc(Cl)nc3)c3cccnc3c2C(CC(O)CO)N1[C@H]1CCCC[C@@H]1O (stereo partly drawn) [Example 21, 5-[(6-Chloropyridin-3-yl)methyl]-9-(2,3-dihydroxypropyl)-8-[(1S,2S)-2-hydroxycyclohexyl]-8,9-dihydro-7H-pyrrolo[3,4-h]quinolin-7-one]
7.82	O=CCC1c2c(cc(Cc3ccc(Cl)nc3)c3cccnc23)C(=O)N1[C@H]1CCCC[C@@H]1O (stereo partly drawn) [Example 22, {5-[(6-Chloropyridin-3-yl)methyl]-8-[(1S,2S)-2-hydroxycyclohexyl]-7-oxo-8,9-dihydro-7H-pyrrolo[3,4-h]quinolin-9-yl}acetaldehyde]

Continued, compound first:

SMILES	pEC50
CC1c2c(cc(Cc3ccc(Cl)nc3)c3ccccc23)C(=O)N1c1ccccc1F (racemic) [Example 15, (±)-5-[(6-Chloropyridin-3-yl)methyl]-2-(2-fluorophenyl)-1-methyl-1,2-dihydro-3H-benzo[e]isoinol-3-one]	6.18
O=C1c2nc(Cc3ccc(Cl)nc3)c3ccccc3c2CN1[C@H]1CCCC[C@@H]1O (racemic) [Example 16, (±)-5-[(6-Chloropyridin-3-yl)methyl]-2-[trans-2-hydroxycyclohexyl]-1,2-dihydro-3H-pyrrolo[3,4-c]isoquinoline-3-one]	7.31
O=C1c2nc(Cc3ccc(-n4cccn4)nc3)c3ccccc3c2CN1[C@H]1CCCC[C@@H]1O (racemic) [Example 17, (±)-2-[trans-2-Hydroxycyclohexyl]-5-{[6-(1H-pyrazol-1-yl)pyridine-3-yl]methyl}-1,2-dihydro-3H-pyrrolo[3,4-c]isoquinoline-3-one]	7.54
COc1ccc(Cc2cc3c(c4ccccc24)CN([C@H]2CCCC[C@@H]2O)C3=O)cc1 [Example 1, 2-[(1S,2S)-2-Hydroxycyclohexyl]-5-(4-methoxybenzyl)-1,2-dihydro-3H-benzo[e]isoindol-3-one]	7.28
C=Cc1ccc(Cc2cc3c(c4ccccc24)CN([C@H]2CCCC[C@@H]2O)C3=O)cn1 [Example 3, 2-[(1S,2S)-2-Hydroxycyclohexyl]-5-[(6-vinylpyridin-3-yl)methyl]-1,2-dihydro-3H-benzo[e]isoindol-3-one]	7.96
O=C1c2cc(Cc3ccc(Cl)nc3)c3ccccc3c2CN1[C@H]1CCCC[C@@H]1F [Example 4, 5-[(6-Chloropyridin-3-yl)methyl]-2-[(2S)-2-fluorocyclohexyl]-1,2-dihydro-3H-benzo[e]isoindol-3-one]	6.51
O=C1c2cc(Cc3ccc(Cl)nc3)c3ccccc3c2CN1C1C=CCCC1 (stereo not shown) [Example 5, 5-[(6-Chloropyridin-3-yl)methyl]-2-cyclohex-2-en-1-yl-1,2-dihydro-3H-benzo[e]isoindol-3-one]	5.61
O=C1c2cc(Cc3cccnc3)c3ccccc3c2CN1[C@H]1CCCC[C@@H]1O [Example 6, 2-[(1S,2S)-2-Hydroxycyclohexyl]-5-(pyridin-3-ylmethyl)-1,2-dihydro-3H-benzo[e]isoindol-3-one]	7.96
O=C1c2cc(Cc3ccc(N4CCOCC4)nc3)c3ccccc3c2CN1[C@H]1CCCC[C@@H]1O [Example 7, 2-[(1S,2S)-2-Hydroxycyclohexyl]-5-[(6-morpholin-4-ylpyridin-3-yl)methyl]-1,2-dihydro-3H-benzo[e]isoindol-3-one]	7.85
O=C1c2cc(Cc3ccc(Cl)nc3)c3ccccc3c2CN1[C@H]1CCOC[C@@H]1O [Example 8, 5-[(6-Chloropyridin-3-yl)methyl]-2-[(3R,4S)-3-hydroxytetrahydro-2H-pyran-4-yl]-1,2-dihydro-3H-benzo[e]isoindol-3-one]	7.92
N#Cc1ccc(Cc2cc3c(c4ccccc24)CN([C@H]2CCCC[C@@H]2O)C3=O)cn1 [Example 9, 5-({2-[(1S,2S)-2-Hydroxycyclohexyl]-3-oxo-2,3-dihydro-1H-benzo[e]isoindol-5-yl}methyl)pyridine-2-carbonitrile]	7.89
CC(=O)O[C@H]1COCC[C@@H]1N1Cc2c(cc(Cc3ccc(O)nc3)c3ccccc23)C1=O [Example 12, 2-O-Acetyl-1,5-anhydro-3,4-dideoxy-3-{3-oxo-5-[(6-oxo-1,6-dihydroyridin-3-yl)methyl]-1,3-dihydro-2H-benzo[e]isoindol-2-yl)-L-threo-pentitol]	5.28
O=C1c2cc(Cc3ccc(O)nc3)c3ccccc3c2CN1[C@H]1CCOC[C@@H]1O [Example 13, 1,5-Anhydro-2,3-dideoxy-3-{3-oxo-5-[(6-oxo-1,6-dihydropyridin-3-yl)methyl]-1,3-dihydro-2H-benzo[e]isoindol-2-yl}-L-threo-pentitol]	7.70
COc1ccc(Cc2cc3c(c4ccccc24)CN(c2ncccc2C(F)(F)F)C3=O)cn1 [Example 14, 5-[(6-Methoxypyridin-3-yl)methyl]-2-[3-(trifluoromethyl)pyridin-2-yl]-1,2-dihydro-3H-benzo[e]isoindol-3-one]	6.84
O=C1CCC(Cc2cc3c(c4ncccc24)CN([C@H]2CCCC[C@@H]2O)C3=O)CN1 (stereo partly drawn) [Example 20, 8-[(1S,2S)-2-Hydroxycyclohexyl]-5-[(6-oxopiperidin-3-yl)methyl]-3,9-dihydro-7H-pyrrolo[3,4-h]quinolin-7-one]	6.70
